Test results from patent US6579899B1, “Composition for treatment of stress” (Massachusetts Institute of Technology, priority 1998, dated 2003).
Counter-ions that a name gives are not always drawn.

Columns and labels:
obese, stressed patients [1] = test: CES-D test of current levels of emotional distress in patients; type: in vivo, human; details: for CES-D Mood Score: over the treatment period
Excerpt: (§1) A subgroup of obese individuals is identified, which individuals describe themselves as being unable to control their eating and who attempt to continue on a weight-reducing diet when experiencing emotional distress. […]
(§2) Objective measurements of emotional distress are made in some patients using the CES-D (Center for […] Depression Form) test, which measures current levels of emotional distress (Radloff, et al., The CES-D Scale: A Self Report Depression Scale for Research in the General Population Applied Psychological Measurement 1: 385-401, 1977); and the POMS (Profile of Mood States test, that assesses tension, depression, anger and confusion (McNair, et al., Profile of Mood States Manual;San Diego: Educational and Industrial Testing Service, 1971); both of these references are hereby incorporated by reference in their entirety. These tests are also given monthly during the treatment period. At the same time, patients also complete questionnaires that ask the patients to rate their appetite and hunger, and also to rate their tendency to eat in response to a variety of emotional and stressful triggers. The patients are also weighed monthly.

[2] = body weight in four month weight loss program; type: in vivo, human
Excerpt: as §1, §2

obese, stressed patients [3] = test: questionnaire rating tendency to eat in response to emotional and stressful triggers; type: in vivo, human; set-up: Emotional Triggers: scale not given here; details: for emotional triggers score: over the treatment period
Excerpt: as §1, §2

obese, stressed patients [4] = test: questionnaire rating appetite and hunger; type: in vivo, human; set-up: Appetite and Cravings: scale not given here
Excerpt: as §1, §2

[5] = system: patient experiencing stress induced symptoms; test: treatment of patients with stress induced symptoms with serotonin precursors (Examples 16-23); type: in vivo, human
rats = details: Rowland et al.; cited from earlier work
[6] = Example 19, food based preparation, in conjunction with a serotonin agonist
[7] = Example 23, food based preparation
[8] = Example 20, in conjunction with a stimulant of serotonin synthesis
[9] = patient seven, 45 then 60 mg/day, Month 1, baseline 20
[10] = patient seven, 45 then 60 mg/day, Month 2, baseline 20
[11] = patient seven, 45 then 60 mg/day, Month 3, baseline 20
[12] = patient seven, 45 then 60 mg/day, Month 4, baseline 20
[13] = Example 22, functional food, in conjunction with a stimulant of serotonin synthesis

CNCCC(Oc1ccc(C(F)(F)F)cc1)c1ccccc1 (stereo not shown) [fluoxetine hydrochloride]
Mood Scores CES-D (obese, stressed patients [1]; patient four, 20 rising to 80 mg/day, Month 1, baseline 15): 10
Mood Scores CES-D (obese, stressed patients [1]; patient four, 20 rising to 80 mg/day, Month 2, baseline 15): 2
Mood Scores CES-D (obese, stressed patients [1]; patient four, 20 rising to 80 mg/day, Month 3, baseline 15): 6
Mood Scores CES-D (obese, stressed patients [1]; patient four, 20 rising to 80 mg/day, Month 4, baseline 15): 7
weight at the end of 4 months ([2]; patient four, 20 rising to 80 mg/day, starting weight 83.2 kg): 78.2 kg
weight at the end of 4 months ([2]; patient four, 20 rising to 80 mg/day, starting weight 183 pounds): 172 pounds
Emotional Triggers (obese, stressed patients [3]; patient four, 20 rising to 80 mg/day, Month 1, baseline 31): 22
Emotional Triggers (obese, stressed patients [3]; patient four, 20 rising to 80 mg/day, Month 2, baseline 31): 13
Emotional Triggers (obese, stressed patients [3]; patient four, 20 rising to 80 mg/day, Month 3, baseline 31): 10
Emotional Triggers (obese, stressed patients [3]; patient four, 20 rising to 80 mg/day, Month 4, baseline 31): 12
Appetite and Cravings (obese, stressed patients [4]; patient four, 20 rising to 80 mg/day, Month 1, baseline 17): 6
Appetite and Cravings (obese, stressed patients [4]; patient four, 20 rising to 80 mg/day, Month 2, baseline 17): 9
Appetite and Cravings (obese, stressed patients [4]; patient four, 20 rising to 80 mg/day, Month 3, baseline 17): 3
Appetite and Cravings (obese, stressed patients [4]; patient four, 20 rising to 80 mg/day, Month 4, baseline 17): 4

N[C@@H](Cc1c[nH]c2ccc(O)cc12)C(=O)O [L-5-hydroxytryptophan]
CES-D Mood Score (obese, stressed patients [1]; [6]): drops
CES-D Mood Score (obese, stressed patients [1]; [7]): drops
emotional triggers score (obese, stressed patients [3]; [6]): drops
emotional triggers score (obese, stressed patients [3]; [7]): drops
stress induced depression [5, 6]: reduced depression
stress [5, 8]: decreased stress
stress induced high blood pressure [5, 8]: lower blood pressure
stress induced inability to concentrate [5, 7]: improved concentration

NNCCc1ccccc1 [phenelzine sulfate]
Mood Scores CES-D (obese, stressed patients [1]; [9]): 22
Mood Scores CES-D (obese, stressed patients [1]; [10]): 20
Mood Scores CES-D (obese, stressed patients [1]; [11]): 15
Mood Scores CES-D (obese, stressed patients [1]; [12]): 14
weight at the end of 4 months ([2]; patient seven, 45 then 60 mg/day, starting weight 83.6 kg): 79.1 kg
weight at the end of 4 months ([2]; patient seven, 45 then 60 mg/day, starting weight 184 pounds): 174 pounds
Emotional Triggers (obese, stressed patients [3]; [9]): 8
Emotional Triggers (obese, stressed patients [3]; [10]): 13
Emotional Triggers (obese, stressed patients [3]; [11]): 6
Emotional Triggers (obese, stressed patients [3]; [12]): 7
Appetite and Cravings (obese, stressed patients [4]; patient seven, 45 then 60 mg/day, Month 1, baseline 19): 15
Appetite and Cravings (obese, stressed patients [4]; patient seven, 45 then 60 mg/day, Month 2, baseline 19): 8
Appetite and Cravings (obese, stressed patients [4]; patient seven, 45 then 60 mg/day, Month 3, baseline 19): 13
Appetite and Cravings (obese, stressed patients [4]; patient seven, 45 then 60 mg/day, Month 4, baseline 19): 12

CN(C)CCCN1c2ccccc2CCc2ccccc21 [imipramine hydrochloride]
Mood Scores CES-D (obese, stressed patients [1]; patient five, intramuscular 75 mg/day, Month 1, baseline 36): 34
Mood Scores CES-D (obese, stressed patients [1]; patient five, intramuscular 75 mg/day, Month 2, baseline 36): 26
Mood Scores CES-D (obese, stressed patients [1]; patient five, intramuscular 75 mg/day, Month 3, baseline 36): 21
Mood Scores CES-D (obese, stressed patients [1]; patient five, intramuscular 75 mg/day, Month 4, baseline 36): 20
weight after 4 months ([2]; patient five, intramuscular 75 mg/day, starting weight 74.1 kg): 70.4 kg
weight after 4 months ([2]; patient five, intramuscular 75 mg/day, starting weight 163 pounds): 155 pounds
Emotional Triggers (obese, stressed patients [3]; patient five, intramuscular 75 mg/day, Month 1, baseline 22): 15
Emotional Triggers (obese, stressed patients [3]; patient five, intramuscular 75 mg/day, Month 2, baseline 22): 14
Emotional Triggers (obese, stressed patients [3]; patient five, intramuscular 75 mg/day, Month 3, baseline 22): 6
Emotional Triggers (obese, stressed patients [3]; patient five, intramuscular 75 mg/day, Month 4, baseline 22): 8
Appetite and Cravings (obese, stressed patients [4]; patient five, intramuscular 75 mg/day, Month 1, baseline 15): 12
Appetite and Cravings (obese, stressed patients [4]; patient five, intramuscular 75 mg/day, Month 2, baseline 15): 7
Appetite and Cravings (obese, stressed patients [4]; patient five, intramuscular 75 mg/day, Month 3, baseline 15): 3
Appetite and Cravings (obese, stressed patients [4]; patient five, intramuscular 75 mg/day, Month 4, baseline 15): 6

CCNC(C)Cc1cccc(C(F)(F)F)c1 (racemic) [D,L-fenfluramine, N-ethyl-α-methyl-3-(trifluoro-methyl)benzeneethanamine]
Mood Scores CES-D (obese, stressed patients [1]; patient six, 30 mg/day, Month 1, baseline 5): 1
Mood Scores CES-D (obese, stressed patients [1]; patient six, 30 mg/day, Month 2, baseline 5): 3
Mood Scores CES-D (obese, stressed patients [1]; patient six, 30 mg/day, Month 3, baseline 5): 2
Mood Scores CES-D (obese, stressed patients [1]; patient six, 30 mg/day, Month 4, baseline 5): 1
Emotional Triggers (obese, stressed patients [3]; patient six, 30 mg/day, Month 1, baseline 23): 2
Emotional Triggers (obese, stressed patients [3]; patient six, 30 mg/day, Month 2, baseline 23): 3
Emotional Triggers (obese, stressed patients [3]; patient six, 30 mg/day, Month 3, baseline 23): 2
Emotional Triggers (obese, stressed patients [3]; patient six, 30 mg/day, Month 4, baseline 23): 4
tail pressure/tail pinch-induced eating (rats): inhibits tail pressure-induced eating
Appetite and Cravings (obese, stressed patients [4]; patient six, 30 mg/day, Month 1, baseline 10): 2
Appetite and Cravings (obese, stressed patients [4]; patient six, 30 mg/day, Month 2, baseline 10): 5
Appetite and Cravings (obese, stressed patients [4]; patient six, 30 mg/day, Month 3, baseline 10): 5
Appetite and Cravings (obese, stressed patients [4]; patient six, 30 mg/day, Month 4, baseline 10): 4

N[C@@H](Cc1c[nH]c2ccccc12)C(=O)O [L-tryptophan]
stress induced fatigue ([5]; Example 18, functional food, in conjunction with a stimulant of serotonin synthesis): reduced fatigue
stress as indicated by CES-D Mood Score and emotional triggers score [5, 13]: reduced stress
stress induced neck and back pain [5, 13]: reduced back and neck pain

CC(CN(C)C)CN1c2ccccc2CCc2ccccc21 (stereo not shown) [trimipramine maleate]
Mood Scores CES-D (obese, stressed patients [1]; patient eight, 75 then 100 mg/day, Month 1, baseline 25): 22
Mood Scores CES-D (obese, stressed patients [1]; patient eight, 75 then 100 mg/day, Month 2, baseline 25): 20
Mood Scores CES-D (obese, stressed patients [1]; patient eight, 75 then 100 mg/day, Month 3, baseline 25): 15
Mood Scores CES-D (obese, stressed patients [1]; patient eight, 75 then 100 mg/day, Month 4, baseline 25): 13
weight at the end of 4 months ([2]; patient eight, 75 then 100 mg/day, starting weight 81.8 kg): 71.8 kg
weight at the end of 4 months ([2]; patient eight, 75 then 100 mg/day, starting weight 180 pounds): 158 pounds
Emotional Triggers (obese, stressed patients [3]; patient eight, 75 then 100 mg/day, Month 1, baseline 14): 8
Emotional Triggers (obese, stressed patients [3]; patient eight, 75 then 100 mg/day, Month 2, baseline 14): 13
Emotional Triggers (obese, stressed patients [3]; patient eight, 75 then 100 mg/day, Month 3, baseline 14): 6
Emotional Triggers (obese, stressed patients [3]; patient eight, 75 then 100 mg/day, Month 4, baseline 14): 3
Appetite and Cravings (obese, stressed patients [4]; patient eight, 75 then 100 mg/day, Month 1, baseline 11): 9
Appetite and Cravings (obese, stressed patients [4]; patient eight, 75 then 100 mg/day, Month 2, baseline 11): 8
Appetite and Cravings (obese, stressed patients [4]; patient eight, 75 then 100 mg/day, Month 3, baseline 11): 13
Appetite and Cravings (obese, stressed patients [4]; patient eight, 75 then 100 mg/day, Month 4, baseline 11): 6

O=C([O-])[O-].[Li+].[Li+] [lithium carbonate]
Mood Scores CES-D (obese, stressed patients [1]; patient one, 900 mg/day, Month 1, baseline 4): 3
Mood Scores CES-D (obese, stressed patients [1]; patient one, 900 mg/day, Month 2, baseline 4): 3
Mood Scores CES-D (obese, stressed patients [1]; patient one, 900 mg/day, Month 3, baseline 4): 2
Mood Scores CES-D (obese, stressed patients [1]; patient one, 900 mg/day, Month 4, baseline 4): 2
weight after 4 months ([2]; patient one, 900 mg/day, starting weight 111.8 kg): 102.3 kg
weight after 4 months ([2]; patient one, 900 mg/day, starting weight 246 pounds): 225 pounds
Emotional Triggers (obese, stressed patients [3]; patient one, 900 mg/day, Month 1, baseline 15): 16
Emotional Triggers (obese, stressed patients [3]; patient one, 900 mg/day, Month 2, baseline 15): 10
Emotional Triggers (obese, stressed patients [3]; patient one, 900 mg/day, Month 3, baseline 15): 6
Emotional Triggers (obese, stressed patients [3]; patient one, 900 mg/day, Month 4, baseline 15): 7
Appetite and Cravings (obese, stressed patients [4]; patient one, 900 mg/day, Month 1, baseline 14): 6
Appetite and Cravings (obese, stressed patients [4]; patient one, 900 mg/day, Month 2, baseline 14): 9
Appetite and Cravings (obese, stressed patients [4]; patient one, 900 mg/day, Month 3, baseline 14): 5
Appetite and Cravings (obese, stressed patients [4]; patient one, 900 mg/day, Month 4, baseline 14): 3

CN[C@H]1CC[C@@H](c2ccc(Cl)c(Cl)c2)c2ccccc21 [sertraline hydrochloride]
Mood Scores CES-D (obese, stressed patients [1]; patient nine, 100 mg/day in divided doses, Month 4, baseline 9): 1
Mood Scores CES-D (obese, stressed patients [1]; patient two, 50 rising to 200 mg/day, Month 1, baseline 20): 16
Mood Scores CES-D (obese, stressed patients [1]; patient two, 50 rising to 200 mg/day, Month 2, baseline 20): 16
Mood Scores CES-D (obese, stressed patients [1]; patient two, 50 rising to 200 mg/day, Month 3, baseline 20): 10
Mood Scores CES-D (obese, stressed patients [1]; patient two, 50 rising to 200 mg/day, Month 4, baseline 20): 12
weight at the end of 4 months ([2]; patient nine, 100 mg/day in divided doses, starting weight 92.3 kg): 72.7 kg
weight at the end of 4 months ([2]; patient nine, 100 mg/day in divided doses, starting weight 203 pounds): 160 pounds
weight at the end of 4 months ([2]; patient two, 50 rising to 200 mg/day, starting weight 78.6 kg): 72.7 kg
weight at the end of 4 months ([2]; patient two, 50 rising to 200 mg/day, starting weight 173 pounds): 160 pounds
Emotional Triggers (obese, stressed patients [3]; patient nine, 100 mg/day in divided doses, Month 4, baseline 12): 3
Emotional Triggers (obese, stressed patients [3]; patient two, 50 rising to 200 mg/day, Month 1, baseline 22): 12
Emotional Triggers (obese, stressed patients [3]; patient two, 50 rising to 200 mg/day, Month 2, baseline 22): 13
Emotional Triggers (obese, stressed patients [3]; patient two, 50 rising to 200 mg/day, Month 3, baseline 22): 5
Emotional Triggers (obese, stressed patients [3]; patient two, 50 rising to 200 mg/day, Month 4, baseline 22): 3
Appetite and Cravings (obese, stressed patients [4]; patient two, 50 rising to 200 mg/day, Month 1, baseline 15): 12
Appetite and Cravings (obese, stressed patients [4]; patient two, 50 rising to 200 mg/day, Month 2, baseline 15): 5
Appetite and Cravings (obese, stressed patients [4]; patient two, 50 rising to 200 mg/day, Month 3, baseline 15): 3
Appetite and Cravings (obese, stressed patients [4]; patient two, 50 rising to 200 mg/day, Month 4, baseline 15): 1
